Assay results as given in patent publication US6913695B2, “Sanitization of chromatographic media” (Bayer HealthCare LLC, priority 2003, dated 2005).
Structures can show the parent of a compound that is named as a salt.

Tests used:
porcine parvovirus; PPV = test: Porcine parvovirus clearance and sanitization across the benzamidine-SEPHAROSE column (TCID50 titration on MPK cells); assay type: cell-based
porcine parvovirus (PPV) = test: Inactivation of PPV in solution by test solutions (TCID50 titration); assay type: cell-based
[1] = system: bovine viral diarrhea virus (BVDV); test: Column sanitization after viral clearance run, BVDV; assay type: cell-based; details: column treated with 7.2 M guanidine hydrochloride, pH 3.0, after a viral clearance run
Experimental: Solutions tested included a variety of alcohols, detergents, and chaotropic agents including guanidine hydrochloride (Table 2). […] A series of experiments were performed to identify conditions under which 8 M guanidine hydrochloride would stay in solution. […] Additionally, when mixed with virus (1 part virus:9 parts acidic guanidine hydrochloride; final guanidine hydrochloride concentration=7.2 M) inactivation to the limit of detection occurred within 30 minutes at 4° C. Similar experiments were carried out treating the benzamidine-SEPHAROSE column with 7.2 M guanidine hydrochloride, pH 3.0, following a viral clearance evaluation run.

PrP^Sc = details: pH 3

In the case of `N=C(N)N` [guanidine hydrochloride], the “inactivation of chromatographic column-associated virus (benzamidine-SEPHAROSE resin)” value (porcine parvovirus; PPV; 7.2 M guanidine hydrochloride, pH 3.0) was “can be inactivated”, the “virus inactivation on the benzamidine-SEPHAROSE column” value (porcine parvovirus; PPV; PPV, column treated with 7.2 M guanidine hydrochloride, pH 3.0, after a viral clearance run) was “inactivation to the limit of assay detection” and the “time to inactivation to the limit of detection” value (porcine parvovirus (PPV); 1 part virus:9 parts acidic guanidine hydrochloride, final concentration 7.2 M, 4° C.) was ≤ 30 min. For the same compound, the “inactivation of virus in solution” value (porcine parvovirus (PPV); 4 M guanidine hydrochloride, pH 3.0) was “effective viral inactivation”, the “inactivation of virus in solution” value (porcine parvovirus (PPV); 6.5 M guanidine hydrochloride, pH 4.0, 4° C.) was “inactivation of virus” and the “killing of virus (PPV)” value (porcine parvovirus (PPV); 8 M guanidine hydrochloride, room temperature, initial screen) was “effective at killing virus to the detection limit of the assay”. For the same compound, the “virus inactivation on the benzamidine-SEPHAROSE column” value [1] was “inactivation to the limit of assay detection”, the “decrease in PrP^RES immunoreactivity, as compared to the non-treated control” value (PrP^Sc) was ≥ 2.5 log and the precipitation (8 M guanidine acidified to pH 4.0 or 3.0, 4° C.) was “did not precipitate”. For the same compound, the “precipitation at the lower temperature” value (8 M guanidine, not acidified, 4° C.) was “precipitation occurred”.
